Experimental data published in patent US20250134907A1, “FUSED DIAZEPINES AS AGONISTS OF THE INSULIN-LIKE 3 (INSL3) PEPTIDE RECEPTOR RXFP2 AND METHODS OF USE THEREOF” (The United States of America,as represented by the …, priority 2022, published 2025).

Legend:
[1] = target: T1, RXFP2 (Homo sapiens, UniProt Q8WXD0); assay: HTRF cAMP assay in HEK293T cells stably expressing RXFP2 (HEK-RXFP2); assay type: cell-based; conditions: for % EFF vs. 1 nM INSL3 (b): normalized to 1 nM INSL3 cAMP response; for % EFF vs. 100 nM INSL3 (c): normalized to 100 nM INSL3 cAMP response
T1 construct: expressed in transfected cells
Procedure: Compound efficacy and EC50 were determined by measuring cAMP induction in vitro. HEK293T cells stably expressing RXFP2 (HEK-RXFP2) produce cAMP when RXFP2 is activated, which can be measured in an antibody-based immunoassay utilizing a fluorescent readout (cAMP Gs HiRange Kit, PerkinElmer, Waltham, MA). HEK-RXFP2 cells were seeded in 96-well plates in serum-free DMEM and incubated overnight at 37° C., 5% CO2. Plates were then treated with a compound titration up to 25 μM or INSL3 control, in the presence of isobutylmethylxanthine phosphodiesterase inhibitor (IBMX) at 200 μM to amplify the cAMP signal, for 1 hour at 37° C., 5% CO2 before being processed as per kit instructions. Table 7 lists the efficacy and EC50 of compounds tested under different experimental conditions. […] In condition (a), 20,000 cells were seeded per well in the 96 well plate, and efficacy was determined by normalizing the maximum compound cAMP response to the 1 nM INSL3 cAMP response (% Efficacy 1 nM INSL3 (a)). In condition (b), 10,000 cells were seeded per well, and compound response was normalized to the 1 nM INSL3 cAMP response (% Efficacy 1 nM INSL3 (b)). In condition (c), 7,500 cells were seeded per well, compound response was normalized to the 100 nM INSL3 cAMP response, and IBMX was omitted (% Efficacy 100 nM INSL3 (c)). A range is given when compounds were tested multiple times. Where compounds were tested under multiple experimental conditions, the EC50 listed for the corresponding condition is marked (a) through (c) to correlate. When EC50 could not be calculated from the dose-response curve, EC50 is listed as not determined (ND).

[2] = target: T1, RXFP2; assay: Luciferase cAMP assay in HEK-CRE-Luc-RXFP2 cells; assay type: cell-based
Procedure: A confirmatory cAMP assay was done to eliminate false positives using a HEK293T-CRE-Luc cell line stably transfected with RXFP2 (HEK-CRE-Luc-RXFP2), as this cell line expresses luciferase under the control of the cAMP response element (CRE). Activation of the RXFP2 receptor increases intracellular cAMP levels, inducing luciferase transcription in the nucleus. Thus, luciferase activity in these cells is proportional to cAMP accumulation. For this assay, cells were seeded in 96-well flat-bottom opaque plates at 20,000 cells/well in 60 μL/well of serum-free DMEM medium and allowed to attach overnight at 37° C., 5% CO2. The next morning, cells were treated with 1 μL/well of compound (25 μM-0.21 nM), 1 μM forskolin, or DMSO vehicle. Cells were also treated with 4 μL of INSL3 (100-0.01 nM) (Phoenix Pharmaceuticals, Burlingame, CA) or vehicle serum-free DMEM. Cells were incubated with the treatments for 3 hours at 37° C., 5% CO2, then rested 30 minutes at room temperature for equilibration, after which 65 μL/well of substrate AMPLITE™ Luciferase Reporter Gene Assay Kit (AAT Bioquest, Sunnyvale, CA) was added. Plates were incubated for 40 minutes at room temperature protected from light, and then luciferase output was read on a CLARIOstar plate reader (BMG Labtech, Germany). […]

[3] = tested on: HEK293T cells; assay: CellTiter-Glo cytotoxicity assay in HEK293T cells; assay type: cell-based, human; conditions: 24 h, 25 μM and 8.3 μM
Procedure: (§1) Cytotoxicity induced by the compounds in HEK293T cells and primary human calvarial osteoblasts (HCO) (ScienCell Research Laboratories, San Diego, CA) were tested using the […]-GLO™ Luminescent Cell Viability Assay (Promega, Madison, WI). This is a luminescence-based assay that determines viable cells by measuring cellular adenosine triphosphate (ATP) production. The luciferase enzyme requires ATP to catalyze the conversion of beetle luciferin to oxyluciferin and light. Thus, luciferase activity is proportional to ATP accumulation in the cells. For this assay, 96-well flat-bottom opaque plates seeded with HEK293T cells at 5,000 cells/well and HCO cells at 3,000 cells/well in 100 μL/well of growth medium (DMEM, 10% FBS, 1× Penicillin/Streptomycin). After incubating overnight at 37° C., 5% CO2 to allow attachment, cells were treated with 1 μL/well of compound (25-0.1 μM) or DMSO vehicle and incubated an additional 24 hours. Then cells were equilibrated for 30 minutes at room temperature and 100 μL/well of […]-GLO™ Reagent was added. Plates were placed on an orbital shaker for 2 minutes and incubated at room temperature for 10 minutes to stabilize the luminescent signal, which was read immediately after on a CLARIOstar plate reader (BMG Labtech, Germany). […] The HEK293T results represent the means±SEM of 3 technical replicates. The HCO results represent the means±SEM of 3 independent experiments.

[4] = tested on: primary human calvarial osteoblasts (HCO); assay: CellTiter-Glo cytotoxicity assay in HCO cells; assay type: cell-based; conditions: 24 h
Procedure: as §1

[5] = condition (b): 10,000 cells/well, IBMX 200 μM
[6] = condition (c): 7,500 cells/well, IBMX omitted

T1 sequence (Q8WXD0 whole entry): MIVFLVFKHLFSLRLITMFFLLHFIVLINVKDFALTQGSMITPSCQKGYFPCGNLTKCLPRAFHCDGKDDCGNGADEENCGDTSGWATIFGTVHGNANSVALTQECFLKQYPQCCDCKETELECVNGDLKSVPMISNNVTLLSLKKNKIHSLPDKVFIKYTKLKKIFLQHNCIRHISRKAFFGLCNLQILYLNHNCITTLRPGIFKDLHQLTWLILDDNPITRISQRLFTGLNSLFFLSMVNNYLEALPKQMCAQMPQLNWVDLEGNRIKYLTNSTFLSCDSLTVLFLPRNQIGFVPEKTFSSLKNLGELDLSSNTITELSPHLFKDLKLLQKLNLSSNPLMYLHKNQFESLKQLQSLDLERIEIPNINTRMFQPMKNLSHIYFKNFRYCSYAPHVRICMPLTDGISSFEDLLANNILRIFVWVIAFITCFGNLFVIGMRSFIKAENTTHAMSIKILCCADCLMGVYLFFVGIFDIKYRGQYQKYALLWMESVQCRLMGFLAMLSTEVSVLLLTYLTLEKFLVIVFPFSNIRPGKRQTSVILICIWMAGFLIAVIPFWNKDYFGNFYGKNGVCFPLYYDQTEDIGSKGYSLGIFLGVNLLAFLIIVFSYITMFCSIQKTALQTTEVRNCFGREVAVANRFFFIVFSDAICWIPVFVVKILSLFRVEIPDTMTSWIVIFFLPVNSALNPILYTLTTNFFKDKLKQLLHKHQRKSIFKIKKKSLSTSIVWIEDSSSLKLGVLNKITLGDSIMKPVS

Structure (SMILES)	EC50 [1, 6]	% EFF vs. 100 nM INSL3 (c) [1, 6]	other results
Cc1cc(-c2ccc3c(c2)C(=O)N2CCN(C(=O)COc4ccc(OC(F)(F)F)cc4Br)C[C@H]2C(=O)N3)cc(C(F)(F)F)c1 [Example 153, (S)-2-(2-(2-bromo-4-(trifluoromethoxy)phenoxy)acetyl)-8-(3-methyl-5-(trifluoromethyl)phenyl)-1,3,4,12a-tetrahydrobenzo[e]pyrazino[1,2-a][1,4]diazepine-6,12 (2H, 11H)-dione]	101 to 319 nM	45.16-86.79%	EC50 [1, 5]: 23.6 to 50.2 nM; % EFF vs. 1 nM INSL3 (b) [1, 5]: 149.80-150.94%; EC50 ([2]; 3 h treatment, 25 μM-0.21 nM): 24.6 nM; Emax (% Eff vs. 10 nM INSL3) ([2]; relative to 10 nM INSL3 response): 109.6%; cytotoxicity [3]: some toxicity; cytotoxicity ([4]; 25 μM): minimal toxicity; cytotoxicity ([4]; lower concentrations than 25 μM): not toxic
O=C1Nc2ccc(-c3cc(O)cc(C(F)(F)F)c3)cc2C(=O)N2CCN(C(=O)COc3ccc(OC(F)(F)F)cc3Br)C[C@@H]12 [Example 173, (S)-2-(2-(2-Bromo-4-(trifluoromethoxy)phenoxy)acetyl)-8-(3-hydroxy-5-(trifluoromethyl)phenyl)-1,3,4,12a-tetrahydrobenzo[e]pyrazino[1,2-a][1,4]diazepine-6,12 (2H, 11H)-dione]			EC50 [1, 5]: 64.2 nM; % EFF vs. 1 nM INSL3 (b) [1, 5]: 114.71%
Cc1cc(OC(F)F)ccc1OCC(=O)N1CCN2C(=O)c3cc(-c4cccc(C(F)F)c4)ccc3NC(=O)[C@@H]2C1 [Example 177, (S)-2-(2-(4-(difluoromethoxy)-2-methylphenoxy)acetyl)-8-(3-(difluoromethyl)phenyl)-1,3,4,12a-tetrahydrobenzo[e]pyrazino[1,2-a][1,4]diazepine-6,12 (2H, 11H)-dione]		17.49%	
O=C1Nc2ccc(-c3cccc(C(F)F)c3)cc2C(=O)N2CCN(C(=O)COc3ccc(OC(F)(F)F)cc3Br)C[C@@H]12 [Example 178, (S)-2-(2-(2-Bromo-4-(trifluoromethoxy)phenoxy)acetyl)-8-(3-(difluoromethyl)phenyl)-1,3,4,12a-tetrahydrobenzo[e]pyrazino[1,2-a][1,4]diazepine-6,12 (2H, 11H)-dione]		52.68%	
O=C1Nc2ccc(-c3cccc(C(F)F)c3)cc2C(=O)N2CCN(C(=O)COc3ccc(OC(F)(F)F)cc3Cl)C[C@@H]12 [Example 179, (S)-2-(2-(2-chloro-4-(trifluoromethoxy)phenoxy)acetyl)-8-(3-(difluoromethyl)phenyl)-1,3,4,12a-tetrahydrobenzo[e]pyrazino[1,2-a][1,4]diazepine-6,12 (2H, 11H)-dione]		28.25%	
Cc1cc(OC(F)(F)F)ccc1OCC(=O)N1CCN2C(=O)c3cc(-c4cccc(C(F)F)c4)ccc3NC(=O)[C@@H]2C1 [Example 180, (S)-8-(3-(difluoromethyl)phenyl)-2-(2-(2-methyl-4-(trifluoromethoxy)phenoxy)acetyl)-1,3,4,12a-tetrahydrobenzo[e]pyrazino[1,2-a][1,4]diazepine-6,12 (2H, 11H)-dione]		23.13%	
COc1cc(OC(F)(F)F)ccc1OCC(=O)N1CCN2C(=O)c3cc(-c4cc(C(F)(F)F)cc(C(F)(F)F)c4)ccc3NC(=O)[C@@H]2C1 [Example 185, (S)-8-(3,5-bis(trifluoromethyl)phenyl)-2-(2-(2-methoxy-4-(trifluoromethoxy)phenoxy)acetyl)-1,3,4,12a-tetrahydrobenzo[e]pyrazino[1,2-a][1,4]diazepine-6,12 (2H, 11H)-dione]	452 nM	63.16%	
O=C1Nc2ccc(-c3cc(C4CC4)cc(C(F)(F)F)c3)cc2C(=O)N2CCN(C(=O)COc3ccc(OC(F)(F)F)cc3Br)C[C@@H]12 [Example 191, (S)-2-(2-(2-bromo-4-(trifluoromethoxy)phenoxy)acetyl)-8-(3-cyclopropyl-5-(trifluoromethyl)phenyl)-1,3,4,12a-tetrahydrobenzo[e]pyrazino[1,2-a][1,4]diazepine-6,12 (2H, 11H)-dione]	189 nM	66.75%	
O=C1Nc2ccc(-c3cc(C4CC4)cc(C(F)(F)F)c3)cc2C(=O)N2CCN(C(=O)COc3ccc(OC(F)(F)F)cc3I)C[C@@H]12 [Example 192, (S)-8-(3-cyclopropyl-5-(trifluoromethyl)phenyl)-2-(2-(2-iodo-4-(trifluoromethoxy)phenoxy)acetyl)-1,3,4,12a-tetrahydrobenzo[e]pyrazino[1,2-a][1,4]diazepine-6,12 (2H, 11H)-dione]	77.8 nM	77.31%	
O=C1Nc2ccc(-c3cccc(C(F)(F)F)c3)cc2C(=O)N2CCN(CCOc3ccccc3)CC12 (stereo not shown) [Example 231, 2-(2-phenoxyethyl)-8-(3-(trifluoromethyl)phenyl)-1,3,4,12a-tetrahydrobenzo[e]pyrazino[1,2-a][1,4]diazepine-6,12 (2H, 11H)-dione]			% EFF vs. 1 nM INSL3 (a) ([1]; condition (a): 20,000 cells/well, IBMX 200 μM, maximum cAMP response normalized to 1 nM INSL3 response): 0.04%
O=C1Nc2ccc(-c3cc(C(F)(F)F)cc(C(F)(F)F)c3)cc2CN2CCN(C(=O)COc3ccc(OC(F)(F)F)cc3I)C[C@@H]12 [Example 254, (S)-8-(3,5-bis(trifluoromethyl)phenyl)-2-(2-(2-iodo-4-(trifluoromethoxy)phenoxy)acetyl)-1,3,4,6,11,12a-hexahydrobenzo[e]pyrazino[1,2-a][1,4]diazepin-12 (2H)-one]	8610 nM	49.35%	
O=C1Nc2ccc(-c3cccc(C(F)(F)F)c3)cc2C(=O)N2CCN(C(=O)COc3ccc(C(F)(F)F)cc3Cl)C[C@@H]12 [Example 255, (S)-2-(2-(2-chloro-4-(trifluoromethyl)phenoxy)acetyl)-8-(3-(trifluoromethyl)phenyl)-1,3,4,12a-tetrahydrobenzo[e]pyrazino[1,2-a][1,4]diazepine-6,12 (2H, 11H)-dione]			EC50 [1, 5]: 9.7 nM; % EFF vs. 1 nM INSL3 (b) [1, 5]: 59.15%
O=C1Nc2ccc(-c3cc(O)cc(C(F)(F)F)c3F)cc2C(=O)N2CCN(C(=O)COc3ccc(OC(F)(F)F)cc3Br)C[C@@H]12 [Example 259, (S)-2-(2-(2-bromo-4-(trifluoromethoxy)phenoxy)acetyl)-8-(2-fluoro-5-hydroxy-3-(trifluoromethyl)phenyl)-1,3,4,12a-tetrahydrobenzo[e]pyrazino[1,2-a][1,4]diazepine-6,12 (2H, 11H)-dione]	62.1 nM	67.97%	
